In patent publication EP4385508A1, “FURAN FATTY ACIDS FOR ENHANCING MUSCLE MASS” (Centre de Coopération Internationale en Recherche …, priority 2022, dated 2024):

Columns and labels:
Citrate synthase = Citrate synthase activity of C2C12 myotubes; type: cell-based, Mouse; settings: 3 days of treatment of C2C12 myotubes
Experimental: (§1) Mouse myoblasts of the C2C12 cell line (ATCC) were seeded at a plating density of 7000 cells/cm2 in 6-well plates. They were grown in DMEM high glucose (4.5g/l) supplemented with gentamycin (50 µg/mL), amphotericin (50 µg/mL), and fetal calf serum (10%). Terminal differentiation was induced at cell confluence by lowering the medium serum concentration (0.5%).
(§2) When indicated, FuFA-F2 was added to the culture medium at the indicated concentration. For the differentiation studies, FuFA-F2 was added at the confluence at the same time as the change in media condition. Three doses of FuFA-F2 were studied at a final concentration of 1, 10, or 50 µM. Human insulin was used at a concentration of 100 nM.
Mitochondrial respiratory complex activities were determined as previously described (Casas et al., 2008, PloS ONE, Vol. 3(6) : e2501). Citrate synthase (CS) activity was measured according to Srere (Srere et al., 1967, Science, Vol. 158(3803) : 936-937) by following the color formation of 5-thio-2-nitrobenzoic acid at 412 nm. The enzymatic activity of complex IV (cytochrome c oxidase) was measured according to Wharton and Tzagoloff (Wharton et al., 1967, Methods in Enzymology, Vol. 10, Edn Elsevier BV, Amsterdam, The Netherlands), a spectrophotometer following the oxidation of reduced cytochrome c at 550 nm, pH 7.4, and 37 °C. Cytochrome c was reduced with sodium dithionite. […]

[1] = system: myosin heavy chain (MyHC); assay: Slow and fast MyHC protein levels by Western blot in C2C12 myotubes; type: cell-based, Mouse
Experimental: as §1, §2
Protein levels were assessed by Western blotting. Total proteins were measured using the Bio-Rad protein assay (Hercules, CA, USA) according to the manufacturer's instructions. Total proteins were lysed in RIPA buffer (20mM Tris, 150mM NaCl, 1mM EDTA, 1% NP40, pH 7.5 + complete cocktail protease inhibitors + Pierce phosphatase inhibitors tablet). 40 µg of cell extracts were loaded and blotted onto a nitrocellulose membrane. The membranes were washed, blocked with 5% nonfat milk and incubated in primary antibody overnight at 4°C. […]
(Figure 5A), commonly used as a quantitative marker of intact mitochondria. […]

C57BL/6J mice = assay: High Fat and High Sucrose (HFHS) diet with FuFA-F2, quadriceps muscle mass; type: in vivo; settings: 12 weeks
Experimental: Forty six-weeks old male C57BL/6J mice (Charles River, L'Arbresle, France), weighing about 21 g, were housed (5 per cage) under conditions of constant temperature (20-22°C), humidity (45-50%) and a standard dark cycle (20.00-08.00 hours). The mice were randomized, according to their initial weight, into four groups of ten animals and fed for 12 weeks with one of the four following semi-purified diets: 1) control diet, 2) HFHS diet, 3) HFHS + FuFA-F2 (0.048%, 40mg/kg body weight/day), 4) HFHS + FuFA-F2 (0.127%, 105mg/kg body weight/day). In this example, "FuFA-F2" is the triacylglycerol form of FuFA-F2.
The control diet contains 5% lipids as a mixture of rapeseed oil, high oleic sunflower oil, sunflower oil and linseed oil (oil mixture of Carrefour), the high fat high sucrose (HFHS) diets contain 25% lipids (5% of a mixture of rapeseed oil, high oleic sunflower oil, sunflower oil and linseed oil and 20% of lard) and 30% sucrose. The detailed composition of the diets is given in Table 1 at the end of the present description. […]
Throughout the study, mice were given free access to food and tap water. Mice body weight was followed weekly and food consumption was determined every two days (during the week) or three days (the week-end). […]
Results were expressed as means ± SD. […]

Structure (SMILES): CCCCCc1cc(C)c(CCCCCCCCC(=O)O)o1 [FuFA-F2]
- citrate synthase activity (Citrate synthase): no effect
- expression of slow MyHC ([1]; 10 µM): significantly increased
- fast MyHC ([1]; highest dose (50 µM)): decrease
- quadriceps muscle mass (C57BL/6J mice; HFHS diet + FuFA-F2 (triacylglycerol form) at any dose (40 and 105mg/kg body weight/day), compared to HFHS alone): increased
- quadriceps muscle mass (C57BL/6J mice; highest dose 105mg/kg body weight/day by comparison to lowest dose 40mg/kg body weight/day, HFHS diet, triacylglycerol form): significantly increased
